logP and chromatographic logP data for 58 molecules are collected here from patent US10070645B2, “N-cycloalkyl-N-{[2-(1-substitutedcycloalkyl)phenyl]methylene}-(thio)carboxamide derivatives” (BAYER CROPSCIENCE AKTIENGESELLSCHAFT, priority 2013, dated 2018).

A short description of this data set: log P by HPLC on a reversed-phase column (C 18), EEC Directive 79/831 Annex V.A8. Format: physicochemical. How it is done: In table 1, the log P values were determined in accordance with EEC Directive 79/831 Annex V.A8 by HPLC (High Performance Liquid Chromatography) on a reversed-phase column (C 18), using the method described below:
Temperature: 40° C.; Mobile phases: 0.1% aqueous formic acid and acetonitrile; linear gradient from 10% acetonitrile to 90% acetonitrile.
Calibration was carried out using unbranched alkan-2-ones (comprising 3 to 16 carbon atoms) with known log P values (determination of the log P values by the retention times using linear interpolation between two successive alkanones). lambda-max-values were determined using UV-spectra from 200 nm to 400 nm and the peak values of the chromatographic signals.

The mark [1] stands for this setting: HPLC, reversed-phase column (C 18), 40° C., 0.1% aqueous formic acid and acetonitrile, linear gradient 10% to 90% acetonitrile.
Where [2] appears, read: Table 3 (amines of formula II), HPLC C 18, 40° C., 0.1% aqueous formic acid and acetonitrile.
The mark [3] stands for this setting: reversed-phase HPLC column (C 18), Table 4 (aldehydes of formula IV), HPLC C 18, 40° C., 0.1% aqueous formic acid and acetonitrile.
[4] abbreviates: HPLC on reversed-phase column (C 18), 40° C., 0.1% aqueous formic acid and acetonitrile, linear gradient 10% to 90% acetonitrile.
The mark [5] stands for this setting: reversed-phase HPLC column (C 18), Table 3 (amines of formula II), HPLC C 18, 40° C., 0.1% aqueous formic acid and acetonitrile.
[6] abbreviates: Table 4 (aldehydes of formula IV), HPLC C 18, 40° C., 0.1% aqueous formic acid and acetonitrile.

On to `C=C(C)c1ccc(C2(C)CC2)c(CN(C(=O)c2c(C(F)F)nn(C)c2F)C2CC2)c1` [I.083], for which the logP under setting [1] amounted to 4.67.
With `Fc1ccc(C2(C(F)F)CC2)c(CNC2CC2)c1` [II.39, N-{2-[1-(difluoromethyl)cyclopropyl]-5-fluorobenzyl}cyclopropanamine], under setting [2], the logP is reported as 1.08. For the setting “reversed-phase HPLC column (C 18), preparation examples”, this molecule registered a chromatographic logP of 1.08.
For the molecule `CCC1(c2ccc(C)cc2C=O)CC1` [IV.18, 2-(1-ethylcyclopropyl)-5-methylbenzaldehyde], the chromatographic logP under setting [3] is 4.29.
Under setting [1], `CCCC1(c2ccc(C)cc2CN(C(=O)c2c(C(F)F)nn(C)c2F)C2CC2)CC1` [I.130] registered a logP of 5.03.
For the molecule `Cc1ccc(C2(C)CC2)c(CN(C(=O)c2c(C(F)F)nn(C)c2F)C2(C)CC2)c1` [I.075], under setting [1], the log partition coefficient (logP) came out at 4.51.
Same read-out and setting: as for `Cn1nc(C(F)F)c(C(=O)N(Cc2ccc3c(c2C2(C)CC2)OCO3)C2CC2)c1Cl` [I.017], the figure is 3.67.
Molecule `COCC1(c2ccc(C)cc2CN(C(=O)c2c(C(F)F)nn(C)c2Cl)C2CC2)CC1` [I.183] showed a logP under setting [4] of 3.68.
In the case of `C=C(C)c1ccc(CN(C(=O)c2c(C(F)F)nn(C)c2F)C2CC2)c(C2(C)CC2)c1` [I.043], the logP under setting [1] was determined as 4.73.
With `Cn1nc(C(F)F)c(C(=O)N(Cc2cc(Cl)c(Cl)cc2C2(C)CC2)C2CC2)c1F` [I.180], the logP under setting [4] is 4.73.
As to `COCC1(c2ccc(C)cc2CNC2CC2)CC1` [II.22, N-{2-[1-(methoxymethyl)cyclopropyl]-5-methylbenzyl}cyclopropanamine], under setting [5], the chromatographic logP was found to be 1.49.
On to `Cc1ccc(C2(Cl)CC2)c(CNC2CC2)c1` [II.34, N-[2-(1-chlorocyclopropyl)-5-methylbenzyl]cyclopropanamine], for which the chromatographic logP under setting [5] came out at 1.34.
As for `CCC1(c2cc(C)ccc2CN(C(=O)c2c(C(F)F)nn(C)c2Cl)C2CC2)CC1` [I.105], the logP under setting [1] is 4.74.
`Cn1nc(C(F)F)c(C(=S)N(Cc2ccccc2C2(C)CC2)C2CC2)c1F` [I.003] had a logP under setting [1] of 4.46.
With `Cn1nc(C(F)F)c(C(=S)N(Cc2cc(F)ccc2C2(C)CC2)C2CC2)c1F` [I.068], the logP under setting [1] worked out at 4.49.
Still for that read-out and setting: in the case of `COC1(c2ccc(-c3ccoc3)cc2CN(C(=O)c2c(C(F)F)nn(C)c2F)C2CC2)CC1` [I.125] it was 3.80.
Regarding `Cn1nc(C(F)F)c(C(=O)N(Cc2cc(Cl)c(Cl)cc2C2(C)CC2)C2CC2)c1Cl` [I.181], under setting [4], the logP is on record as 4.93.
For the molecule `Cn1nc(C(F)F)c(C(=O)N(Cc2ccc(F)cc2C2(C(F)F)CC2)C2CC2)c1Cl` [I.145], the logP under setting [1] worked out at 3.55.
`CCC1(c2cc(C)ccc2CN(C(=O)c2c(C(F)F)nn(C)c2F)C2CC2)CC1` [I.104] registered a logP under setting [1] of 4.59.
Take `CCC1(c2ccccc2CN(C(=S)c2c(C(F)F)nn(C)c2Cl)C2CC2)CC1` [I.099]: the logP under setting [1] is given as 5.00.
Molecule `COc1cc(CNC2CC2)c(C2(C)CC2)cc1OC` [II.08, N-[4,5-dimethoxy-2-(1-methylcyclopropyl)benzyl]cyclopropanamine] had a chromatographic logP under setting [5] of 1.26.
Molecule `O=Cc1cc(Cl)ccc1C1(C(F)F)CC1` [IV.20, 5-chloro-2-[1-(difluoromethyl)cyclopropyl]benzaldehyde] registered a chromatographic logP under setting [3] of 3.04.
With `Cn1nc(C(F)F)c(C(=O)N(Cc2c(F)cccc2C2(C)CC2)C2CC2)c1F` [I.089], the logP under setting [1] turned out to be 3.79.
Same read-out and setting: as for `Cc1ccc(C2(C3CC3)CC2)c(CN(C(=O)c2c(C(F)F)nn(C)c2Cl)C2CC2)c1` [I.135], the figure is 4.72.
For the setting “reversed-phase HPLC column (C 18), HPLC, reversed-phase column (C 18), 40° C., 0.1% aqueous formic acid and acetonitrile, linear gradient 10% to 90% acetonitrile”, `Cn1nc(C(F)F)c(C(=O)N(Cc2cc(Cl)ccc2C2(C)CC2)C2CC2)c1F` [I.060, N-[5-chloro-2-(1-methylcyclopropyl)benzyl]-N-cyclopropyl-3-(difluoromethyl)-5-fluoro-1-methyl-1H-pyrazole-4-carboxamide] had a chromatographic logP of 4.26.
Turning to `CCC1(c2ccc(C)cc2CN(C(=O)c2c(C(F)F)nn(C)c2Cl)C2CC2)CC1` [I.112], under setting [1], the logP was determined as 4.77.
Consider `Cc1ccc(C2(C(F)(F)F)CC2)c(CN(C(=O)c2c(C(F)F)nn(C)c2F)C2CC2)c1` [I.167], for which the logP under setting [4] is given as 4.11.
On to `FC(F)C1(c2cccc(Br)c2CNC2CC2)CC1` [II.41, N-{2-bromo-6-[1-(difluoromethyl)cyclopropyl]benzyl}cyclopropanamine], for which the chromatographic logP under setting [5] is 1.1.
As for `CCC1(c2cccc(F)c2CNC2CC2)CC1` [II.31, N-[2-(1-ethylcyclopropyl)-6-fluorobenzyl]cyclopropanamine], under setting [5], the chromatographic logP came to 1.14.
`Cn1nc(C(F)F)c(C(=O)N(Cc2cc(C3CC3)ccc2C2(C(F)F)CC2)C2CC2)c1F` [I.150] came in with a logP under setting [1] of 3.94.
On the same count and under the same terms, in the case of `Cn1nc(C(F)F)c(C(=O)N(Cc2ccccc2C2(C)CC2)C2CC2)c1Cl` [I.002] it was 4.01.
Turning to `Cn1nc(C(F)F)c(C(=O)N(Cc2c(C3(C)CC3(Cl)Cl)ccc(Cl)c2Cl)C2CC2)c1F` (racemic) [I.173], under setting [4], the logP came out at 4.71.
Under setting [5], `CCC1(c2cc(C)c(F)cc2CNC2CC2)CC1` [II.27, N-[2-(1-ethylcyclopropyl)-5-fluoro-4-methylbenzyl]cyclopropanamine] displayed a chromatographic logP of 1.69.
With `Cn1nc(C(F)F)c(C(=O)N(Cc2c(C3(C)CC3)ccc(Cl)c2Cl)C2CC2)c1F` [I.085], the logP under setting [1] is reported as 4.51.
With `CC1(c2ccccc2C=O)CC1` [IV.01, 2-(1-methylcyclopropyl)benzaldehyde], the chromatographic logP under setting [3] was 3.02.
`Cn1nc(C(F)F)c(C(=O)N(Cc2ccccc2C2(C(F)(F)F)CC2)C2CC2)c1F` [I.161] displayed a logP under setting [4] of 2.34.
For `CCCC1(c2cc(Cl)ccc2CN(C(=O)c2c(C(F)F)nn(C)c2Cl)C2CC2)CC1` [I.129], the logP under setting [1] is on record as 5.31.
Same read-out and setting: as for `COc1cc(CN(C(=S)c2c(C(F)F)nn(C)c2F)C2CC2)c(C2(C)CC2)cc1OC` [I.055], the figure is 3.96.
Regarding `Cc1ccc(C2(C)CC2)c(CN(C(=O)c2c(C(F)F)nn(C)c2Cl)C2CC2)c1` [I.072], the logP under setting [1] worked out at 4.36.
Regarding `Cn1ccc(-c2ccc(CN(C(=O)c3c(C(F)F)nn(C)c3F)C3CC3)c(C3(C)CC3)c2)c1` [I.034], under setting [1], the logP turned out to be 4.15.
Consider `C#CC1(c2ccc(C)cc2CNC2CC2)CC1` [II.17, N-[2-(1-ethynylcyclopropyl)-5-methylbenzyl]cyclopropanamine], for which the chromatographic logP under setting [5] came out at 1.15.
“3-fluoro-2-(1-methylcyclopropyl)benzaldehyde [IV.14]” showed a logP under setting [6] of 3.13.
`COc1cc(CN(C(=S)c2c(C(F)F)nn(C)c2Cl)C2CC2)c(C2(C)CC2)cc1OC` [I.056] yielded a logP under setting [1] of 4.09.
For `CC1(c2cc(Cl)ccc2CNC2CC2)CC1` [II.04, N-[4-chloro-2-(1-methylcyclopropyl)benzyl]cyclopropanamine], the chromatographic logP under setting [5] was found to be 1.54.
Turning to `CCC1(c2ccc(Cl)cc2CNC2CC2)CC1` [II.29, N-[5-chloro-2-(1-ethylcyclopropyl)benzyl]cyclopropanamine], under setting [5], the chromatographic logP came out at 1.66.
Under setting [1], `Cn1nc(C(F)F)c(C(=S)N(Cc2ccc(F)cc2C2(C)CC2)C2CC2)c1Cl` [I.024] showed a logP of 4.74.
`C[Si](C)(C)C#CC1(c2ccc(Cl)cc2CNC2CC2)CC1` [II.18, N-(5-chloro-2-{1-[(trimethylsilyl)ethynyl]cyclopropyl}benzyl)cyclopropanamine]: the chromatographic logP under setting [2] came out at 2.07.
In turn, `CCC1(c2ccc(C)cc2CN(C(=O)c2c(C(F)F)nn(C)c2F)C2CC2)CC1` [I.113] came in with a logP under setting [1] of 4.61.
On the same count and under the same terms, as for `CCC1(c2cc(Cl)ccc2CN(C(=O)c2c(C(F)F)nn(C)c2F)C2CC2)CC1` [I.102], the figure is 4.67; as for `Cn1nc(C(F)F)c(C(=O)N(Cc2ccc(-c3ccc(F)cc3)cc2C2(C)CC2)C2CC2)c1F` [I.041], 4.96.
“1-(2-formyl-4-methylphenyl)cyclopropanecarbonitrile [IV.16]” came in with a log partition coefficient (logP) under setting [6] of 2.08.
As for `Cn1nc(C(F)F)c(C(=O)N(Cc2cc(F)ccc2C2(C)CC2(Cl)Cl)C2CC2)c1F` (racemic) [I.170], the logP under setting [4] is 4.09.
Consider `Cn1nc(C(F)F)c(C(=O)N(Cc2cccc(C3=CC4CCC3C4)c2C2(C)CC2)C2CC2)c1F` (centres unmarked) [I.013], for which the logP under setting [1] stood at 5.78.
As for `FC(F)C1(c2ccccc2CNC2CC2)CC1` [II.36, N-{2-[1-(difluoromethyl)cyclopropyl]benzyl}cyclopropanamine], the chromatographic logP under setting [5] was determined as 0.92.
`CCc1ccc(C2(C)CC2)c(CN(C(=O)c2c(C(F)F)nn(C)c2F)C2CC2)c1` [I.065] yielded a logP under setting [1] of 4.56.
In turn, `Cn1nc(C(F)F)c(C(=O)N(Cc2cc(Cl)ccc2C2(C)CC2)C2CC2)c1Cl` [I.061] showed a logP under setting [1] of 4.44.
Molecule `Cn1nc(C(F)F)c(C(=O)N(Cc2cc(-c3csc4ccccc34)ccc2C2(C)CC2)C2CC2)c1F` [I.081] registered a lipophilicity (logP) under setting [1] of 5.48.
Regarding `Cc1ccc(C2(C)CC2)c(CN(C(=O)c2c(C(F)F)nn(C)c2Cl)C2(C#N)CC2)c1` [I.078], the lipophilicity (logP) under setting [1] was 3.87.
`Cc1ccc(C2(C#N)CC2)c(CNC2CC2)c1` [II.21, 1-{2-[(cyclopropylamino)methyl]-4-methylphenyl}cyclopropanecarbonitrile] registered a chromatographic logP under setting [5] of 1.19.
